Measured values as given in patent US5143910A, “Piperaziniocephalosporins” (Shionogi & Co., Ltd., priority 1989, dated 1992).
≈ marks a conversion by molar mass, not a printed value. Like-named read-outs stand apart in the source and are kept apart here. Blank lines part the entries; values can stand above or below the molecule they belong to.

Experiments:
[1] = tested on: Pseudomonas aeruginosa ATCC 25619; test: MIC on agar plate by two fold dilution (Japan Society of Chemotherapy) against Pseudomonas aeruginosa ATCC 25619; format: cell-based; details: ATCC25619, P. aeruginosa ATCC 25619, in 0.01N-sodium hydrogen carbonate, read-out: minimal inhibitory concentration (MIC)
Description: By altering the groups with the followings, the activity varied as below (AT=2-amino-4-thiazolyl).

[2] = tested on: Pseudomonas aeruginosa SR 24; test: MIC against Pseudomonas aeruginosa SR 24; format: cell-based; details: SR24
[3] = tested on: Pseudomonas aeruginosa SR 5018; test: MIC against ofloxacin resistant Pseudomonas aeruginosa SR 5018; format: cell-based
[4] = tested on: Pseudomonas aeruginosa SR 24; test: 50% effective dose for preventing mouse from death caused by Pseudomonas aeruginosa SR 24; format: in vivo
Procedure: The 50% effective dose of compound (I) where R^1 is 2-(2-amino-4-thiazolyl)-2-(1-carboxy-1-methylethoxy)imino-acetamido, R^2 is hydrogen, R^3 is methyl, R^4 R^5 is 3,4-dihydroxybenzoyl, R^6 combined with Y^- is a negative charge, X is sulfur for preventing mouse from the death caused by Pseudomonas aeruginose SR 24 is 1.25 mg/kg.

[5] = tested on: Pseudomonas aeruginosa SR 4967; test: ED50 against Pseudomonas aeruginosa SR 4967; format: in vivo; details: SR4967, mouse
[6] = tested on: Serratia marcescens A 13880; test: ED50 against Serratia marcescens A 13880; format: in vivo; details: A13880, mouse
Morgania morganii = test: antibacterial activity against clinically isolated Morgania morganii; format: cell-based
Enterobacter cloacae = test: antibacterial activity against clinically isolated Enterobacter cloacae; format: cell-based
[7] = antibacterial activity against clinically isolated Clostridium freundii; format: cell-based
[8] = urinary and bile juice recovery after subcutaneous injection; format: in vivo; details: urine and bile, sc; during 2 hours after subcutaneous injection (20 mg/kg); read-out: urinary and bile juice recovery (total)
[9] = safety test, intravenous injection, mouse; format: in vivo; details: dose up to 1 g/kg
[10] = safety test, intravenous injection, rabbit; format: in vivo; details: dose up to 1 g/kg

- MIC [1]: 0.02 µg/mL (≈ 0.0271 µM)
Compound: CC(C)(O/N=C(\C(=O)N[C@@H]1C(=O)N2C(C(=O)[O-])=C(C[N+]3(C)CCN(C(=O)c4cc(O)c(O)c(Cl)c4)CC3)CS[C@H]12)c1csc(N)n1)C(=O)O [No. 11]

- MIC [1]: 0.02 µg/mL (≈ 0.0259 µM)
Compound: CC(C)(O/N=C(\C(=O)N[C@@H]1C(=O)N2C(C(=O)[O-])=C(C[N+]3(C)CCN(C(=O)c4cc(Cl)c(O)c(O)c4Cl)CC3)CS[C@H]12)c1csc(N)n1)C(=O)O [No. 13]

- MIC [1]: 3.1 µg/mL (≈ 4.32 µM)
Compound: COc1cc(C(=O)N2CC[N+](C)(CC3=C(C(=O)[O-])N4C(=O)[C@@H](NC(=O)C(=NOC(C)(C)C(=O)O)c5csc(N)n5)[C@H]4SC3)CC2)ccc1O [No. 14]

- MIC [1]: 0.05 µg/mL (≈ 0.0727 µM)
Compound: C=C(O/N=C(\C(=O)N[C@@H]1C(=O)N2C(C(=O)[O-])=C(C[N+]3(C)CCN(C(=O)c4ccc(O)c(O)c4)CC3)CS[C@H]12)c1csc(N)n1)C(=O)O [No. 17]

- MIC [1]: 0.1 µg/mL (≈ 0.145 µM)
Compound: CC(C)(O/N=C(\C(=O)N[C@@H]1C(=O)N2C(C(=O)[O-])=C(C[N+]3(C)CCN(Cc4ccc(O)c(O)c4)CC3)CS[C@H]12)c1csc(N)n1)C(=O)O [No. 15]

- MIC [1]: 0.02 µg/mL (≈ 0.0271 µM)
Compound: CC(C)(O/N=C(\C(=O)N[C@@H]1C(=O)N2C(C(=O)[O-])=C(C[N+]3(C)CCN(C(=O)c4cc(O)c(O)cc4Cl)CC3)CS[C@H]12)c1csc(N)n1)C(=O)O [No. 12]

- MIC [1]: 0.02 µg/mL (≈ 0.0271 µM)
Compound: CC(C)(O/N=C(\C(=O)N[C@@H]1C(=O)N2C(C(=O)[O-])=C(C[N+]3(C)CCN(C(=O)c4ccc(O)c(O)c4Cl)CC3)CS[C@H]12)c1csc(N)n1)C(=O)O [No. 9, 7β-[2-(2-aminothiazol-4-yl)-2-(1-carboxy-1-methylethoxyimino)acetamido]-3-[4-(2-chloro-3,4-dihydroxybenzoyl)-1-methylpiperazinio-1-yl]methyl-3-cephem-4-carboxylate]

Continued, molecule first:

Compound: CO/N=C(\C(=O)N[C@@H]1C(=O)N2C(C(=O)[O-])=C(C[N+]3(C)CCN(CC(=O)c4ccc(O)c(O)c4)CC3)CS[C@H]12)c1csc(N)n1 [No. 6]
- MIC [1]: 0.05 µg/mL (≈ 0.0774 µM)

Compound: CO/N=C(\C(=O)N[C@@H]1C(=O)N2C(C(=O)[O-])=C(C[N+]3(C)CCN(C(=O)c4ccc(O)c(O)c4)CC3)CS[C@H]12)c1csc(N)n1 [No. 3]
- MIC [1]: 0.05 µg/mL (≈ 0.0792 µM)

Compound: C[N+]1(CC2=C(C(=O)[O-])N3C(=O)[C@@H](NC(=O)Cc4ccccc4)[C@H]3SC2)CCN(C(=O)c2ccc(O)c(O)c2)CC1 [No. 2]
- MIC [1]: > 100 µg/mL

Compound: CO[C@@]1(NC(=O)CSC(F)F)C(=O)N2C(C(=O)[O-])=C(C[N+]3(C)CCN(C(=O)c4ccc(O)c(O)c4)CC3)CO[C@@H]21 [No. 1]
- MIC [1]: > 100 µg/mL

Compound: CC(C)(O/N=C(\C(=O)N[C@@H]1C(=O)N2C(C(=O)[O-])=C(C[N+]3(C)CCN(C(=O)c4ccc(O)c(O)c4)CC3)CS[C@H]12)c1csc(N)n1)C(=O)O [No. 8, 7β-[2-(2-amino-4-thiazolyl)-2-(1-carboxy-1-methylethoxyimino)acetamido]-3-[4-(3,4-dihydroxybenzoyl)-1-methylpiperazinio-1-yl]methyl-3-cephem-4-carboxylate]
- MIC [2]: 0.1 µg/mL (≈ 0.142 µM)
- MIC ([3]; SR5018, ofloxacin resistant Pseudomonas aeruginosa SR 5018): 0.05 µg/mL (≈ 0.071 µM)
- times more potent (MIC) than BO-1341 ([3]; vs 0.4 γ/ml of BO-1341, P. aeruginosa SR 5018): 8 times
- times more potent (MIC) than E-1040 ([3]; vs 6.3 γ/ml of E-1040, P. aeruginosa SR 5018): 126 times
- times more potent (MIC) than ceftazidime ([3]; vs 25 γ/ml of ceftazidime, P. aeruginosa SR 5018): 500 times
- ED50 ([4]; Pseudomonas aeruginosa, SR24, read-out: 50% effective dose for preventing mouse from death): 1.25 mg/kg
- ED50 ([4]; SR24, mouse, Pseudomonas aeruginosa SR 24, read-out: ED50 (mouse)): 1.41 mg/kg
- times more potent (ED50) than reference 3-(3,4-dihydroxybenzyl) compound ([4]; vs 3.4 mg/kg of the reference, P. aeruginosa SR 24): 2.4 times
- times more potent (ED50) than reference 3-(dihydroxyphenylthiadiazolylthio)methyl compound ([4]; vs 16.3 mg/kg of the reference, P. aeruginosa SR 24): 11.6 times
- ED50 [5]: 4.91 mg/kg
- ED50 [6]: 0.28 mg/kg
- antibacterial activity (Morgania morganii): high antibacterial activity
- antibacterial activity (Enterobacter cloacae): high antibacterial activity
- antibacterial activity [7]: high antibacterial activity
- dose excreted at 2 h [8]: 70.4%
- death [9]: did not show death
- death [10]: did not show death
